Entries after “also recorded” stand apart in the source; their conditions may differ.
Legend:
OVCAR-4 = assay: NCI growth inhibition screen, ovarian panel; assay type: cell-based, human; set-up: key to Performance as compared to ET-18-O—CH3: = means equivalent activity; + means that it appears to be significantly better (i.e., by ˜2x); < means it appears to be less active than ET18OCH3 (˜2x); a combination like =/+ or </+ means that activity is dependent upon the isomer; a combination like =/+ or </+ means that activity is dependent upon the isomer; conditions: for activity compared to both ET-18-OCH3 isomers (in words): OVCAR-4, NCI screen; for Performance as compared to ET-18-O—CH3: OVCAR-4, Ovarian, from GI50s
Method: (§1) Candidates deemed suitable for in vivo testing were then synthesized in large scale quantities and some of this material was sent to the NCI's Developmental Therapeutics Program for a battery of growth inhibitory studies against various human tumor cell lines (60 cell lines, 9 different panels). The remainder of the material was used to assess in vivo efficacy using murine tumor models. Additionally, studies were conducted on the lead candidates to discern mechanism of action with particular emphasis on these agents apoptotic ability as measured by caspase 3 activity. The details (materials and methods) for these various assays are described further in the following discussion.
(§2) Ten compounds were also sent to NCI's Drug Discovery Program for screening against numerous human tumor cell lines (9 panels total: renal ovarian, colon, CNS, non-small cell lung, leukemia, breast, melanoma, and prostate). The data are shown in FIGS. 2a-i which also include data regarding D- and L-ET-18-OCH3 (listed as L-EL and D-EL in the figures). Upon examining the data, one is struck by how 1R and 1a′S standout in comparison to the other compounds, especially for the renal, ovarian, colon, and CNS panels.

OVCAR-5 = assay: NCI growth inhibition screen, ovarian panel; assay type: cell-based, human; set-up: key to Performance as compared to ET-18-O—CH3: = means equivalent activity; + means that it appears to be significantly better (i.e., by ˜2x); < means it appears to be less active than ET18OCH3 (˜2x); a combination like =/+ or </+ means that activity is dependent upon the isomer; a combination like =/+ or </+ means that activity is dependent upon the isomer; conditions: for activity compared to both ET-18-OCH3 isomers (in words): OVCAR-5, NCI screen; for Performance as compared to ET-18-O—CH3: OVCAR-5, Ovarian, from GI50s
Method: as §1, §2

MCF-7 = assay: NCI growth inhibition screen, breast panel; assay type: cell-based, human; set-up: key to Performance as compared to ET-18-O—CH3: = means equivalent activity; + means that it appears to be significantly better (i.e., by ˜2x); < means it appears to be less active than ET18OCH3 (˜2x); a combination like =/+ or </+ means that activity is dependent upon the isomer; a combination like =/+ or </+ means that activity is dependent upon the isomer; conditions: for Performance as compared to ET-18-O—CH3: MCF-7, Breast, from GI50s; for activity compared to ET-18-OCH3 (in words): MCF-7 cell line, NCI screen
Method: as §1, §2

T-47D = assay: NCI growth inhibition screen, breast panel; assay type: cell-based, human; set-up: key to Performance as compared to ET-18-O—CH3: = means equivalent activity; + means that it appears to be significantly better (i.e., by ˜2x); < means it appears to be less active than ET18OCH3 (˜2x); a combination like =/+ or </+ means that activity is dependent upon the isomer; a combination like =/+ or </+ means that activity is dependent upon the isomer; conditions: for Performance as compared to ET-18-O—CH3: T-47D, Breast, from GI50s; for GI50: breast cancer cell line T-47D, NCI screen
Method: as §1, §2

[1] = test system: DEVDase activity (Caspase 3) in U937 cell line; assay: DEVDase activity in U937 cell line; assay type: cell-based, human
Method: Suspension cells were seeded at density 3.2×10^5 cells per mL in RPMI-1640 medium (Bio-Whittaker) supplemented with 10% heat inactivated FBS (Bio-Whittaker). Cells were pre-incubated overnight prior to treatment with the ether lipid compounds of the invention. At treatment time cell density was 5×10^5 cells per mL. Cells were incubated with the ether lipid compounds of the invention for various periods of time, usually 6 hours. Cells were collected, washed with 1×DPBS and resuspended in 110 μl of Buffer A (10 mM BEPES-KOH, pH 7.4, 2 mM EDTA, 0.1% CHAPS, 5 mM DTT, 1:100 dilution of protease inhibitors cocktail (Sigma)-DTT and protease inhibitors should be added just before use). […]
Measurement of DEVDase activity was carried out in 100 μl volume, where 10 μg of protein was delivered in 50 μl of Buffer A and 40 μM of substrate Ac-DEVD-AMC was also delivered in 50 μl of Buffer A. All measurements were done in triplicates. Reaction was carried out for 1 hour and generation of fluorescent product of reaction (aminomethylcoumarin) was measured by reading fluorescence at 1em 460 nm (1ex 360 nm). Changes in DEVDase activity were calculated after subtraction of background fluorescence of substrate incubated without proteins, and were expressed as percent of control (DEVDase activity in untreated cells). […]

MDA-MB-435 = assay: NCI growth inhibition screen, breast panel; assay type: cell-based, human; set-up: key: = means equivalent activity; + means that it appears to be significantly better (i.e., by ˜2x); < means it appears to be less active than ET18OCH3 (˜2x); a combination like =/+ or </+ means that activity is dependent upon the isomer; a combination like =/+ or </+ means that activity is dependent upon the isomer; conditions: MDA-MB-435, Breast; from GI50s
Method: as §1, §2

NCI/ADR-RES = assay: NCI growth inhibition screen, breast panel; assay type: cell-based, human; set-up: key: = means equivalent activity; + means that it appears to be significantly better (i.e., by ˜2x); < means it appears to be less active than ET18OCH3 (˜2x); a combination like =/+ or </+ means that activity is dependent upon the isomer; a combination like =/+ or </+ means that activity is dependent upon the isomer; conditions: from GI50s
Method: as §1, §2

MDA-N = assay: NCI growth inhibition screen, breast panel; assay type: cell-based, human; set-up: key: = means equivalent activity; + means that it appears to be significantly better (i.e., by ˜2x); < means it appears to be less active than ET18OCH3 (˜2x); a combination like =/+ or </+ means that activity is dependent upon the isomer; a combination like =/+ or </+ means that activity is dependent upon the isomer; conditions: from GI50s
Method: as §1, §2

[2] = test system: human tumor cell lines (9 panels); assay: NCI growth inhibition screen, all panels; assay type: cell-based; conditions: for activity as compared to ET-18-OCH3 (in words): all NCI panels; for activity compared to ET-18-OCH3 isomers (in words): colon and CNS panels of cell lines
Method: as §1, §2

SMILES | activity compared to both ET-18-OCH3 isomers (in words) (OVCAR-4) | Performance as compared to ET-18-O—CH3 (OVCAR-4) | activity compared to both ET-18-OCH3 isomers (in words) (OVCAR-5) | Performance as compared to ET-18-O—CH3 (OVCAR-5) | Performance as compared to ET-18-O—CH3 (MCF-7) | activity compared to ET-18-OCH3 (in words) (MCF-7) | Performance as compared to ET-18-O—CH3 (T-47D) | GI50 (T-47D) [µM] | DEVDase activity compared to ET-18-OCH3 (in words) [1] | Performance as compared to ET-18-O—CH3 (MDA-MB-435) | Performance as compared to ET-18-O—CH3 (NCI/ADR-RES) | Performance as compared to ET-18-O—CH3 (MDA-N) | activity as compared to ET-18-OCH3 (in words) [2] | activity compared to ET-18-OCH3 isomers (in words) [2]
CCCCCCCCCCCCCCCCCCOC[C@@H](COP(=O)([O-])OCC[N+](C)(C)C)OS(C)(=O)=O [1a′S] | significantly better activity | 2048 | significantly better activity | 4096 | 128 | more active than ET-18-OCH3 | < | ≥ 15 | equivalent to ET-18-OCH3; also recorded: more active than 1aR | 0 | 0 | 0 | equal or greater in activity | more active than even the ET-18-OCH3 isomers
CCCCCCCCCCCCCCCCCCOCC(COP(=O)([O-])OCC[N+](C)(C)C)OS(C)(=O)=O (stereo not shown) [Compound 1aR] | significantly better activity | + | significantly better activity | + | + | more active than ET-18-OCH3 | + | < 2.5 | equivalent to ET-18-OCH3 | = | = | = | equal or greater in activity | more active than even the ET-18-OCH3 isomers
